For series [1], the system named is THP-1. The experiment in a line: Antiinflammatory activity in human THP1 cells assessed as reduction in LPS-induced TNF secretion at 10 to 90 uM preincubated for 3 hrs followed by LPS stimulation and measured after 18 hrs by ELISA. The format is functional, cell-based.
Series [2] deals with THP-1. The experiment in a line: Antiinflammatory activity in human THP1 cells assessed as reduction in LPS-induced IL-1beta secretion at 10 to 90 uM preincubated for 3 hrs followed by LPS stimulation and measured after 18 hrs by ELISA. The format is functional, cell-based. A general note: An ELISA detects its analyte on a solid surface through an enzyme-linked reagent.
The nature of series [3]: Cytotoxicity against human THP1 cells assessed as cell viability at 10 to 90 uM incubated for 18 hrs by sulforhodamine B assay relative to control. The format is cell-based. The conditions noted are these: THP-1 cells, read-out: Activity. For orientation: Sulforhodamine B stains cellular protein and so reports cell mass.
Series [4] relates to THP-1. In words: Antiinflammatory activity in human THP1 cells assessed as reduction in LPS-induced CCL2 secretion preincubated for 3 hrs followed by LPS stimulation and measured after 18 hrs by ELISA. In kind it is functional, cell-based.

Activity calls are given as the source filed them. No cut-off for these calls is given here.

As for `O=C1c2c(O)cc(O)cc2O[C@H](c2ccc(O)cc2)[C@@H]1[C@@H]1C(=O)c2c(O)cc(O)cc2O[C@@H]1c1ccc(O)cc1` [NEOCHAMAEJASMIN A], the outcome in the series with THP-1 [1] and in the series on THP-1 [2] was inactive. The viability at 18 h, up to 90 µM in series [3] is over 90%.

For `COc1cc(O)c2c(c1)O[C@H](c1ccc(O)cc1)[C@H]([C@@H]1C(=O)c3c(O)cc(OC)cc3O[C@@H]1c1ccc(O)cc1)C2=O`, the result in the series on THP-1 [1] and in the series on THP-1 [2] was inactive. Also, in series [3], the viability at 18 h, up to 90 µM is over 90%.

One may read the IC50 as the concentration that gives 50% inhibition. With `COc1cc(O)c2c(c1)O[C@H](c1ccc(O)cc1)[C@@H]([C@H]1C(=O)c3c(O)cc(OC)cc3O[C@@H]1c1ccc(O)cc1)C2=O`, the result with THP-1 [1] and in the series on THP-1 [2] was inactive. For the same compound, the IC50 in the series with THP-1 [4] amounted to 3.1 µM. The viability at 18 h, up to 90 µM in series [3] is over 90%.

Regarding `COc1cc(O)c2c(c1)O[C@H](c1ccc(O)cc1)[C@@H]([C@H]1C(=O)c3c(O)cc(O)cc3O[C@@H]1c1ccc(O)cc1)C2=O`, the result in the series on THP-1 [1] and in the series with THP-1 [2] was inactive. Further, the viability at 18 h, up to 90 µM in series [3] was over 90%.
